Measurements: ChEMBL document CHEMBL5108012, “Discovery of 2,5-diphenyl-1,3,4-thiadiazole derivatives as HDAC inhibitors with DNA binding affinity” (Eur J Med Chem, 2022)
Active and inactive are the calls of the source. The calls are words filed in the database; no cut-off is given here.

Assays:
[1] = tested on: MC-38; assay: Antiproliferative activity against mouse MC38 cells after 48 hrs by CCK-8 assay; type: functional, cell-based; details: MC-38, 48 h
[2] = molecular target: T1, Protein deacetylase HDAC6 (Homo sapiens, UniProt Q9UBN7); assay: Inhibition of HDAC6 in human HeLa cell nuclear extract using Boc-Lys(Ac)-AMC or Boc-Lys(triflouroacetyl)-AMC as substrate incubated for 30 mins and measured by fluorescence assay; type: cell-free
T1 sequence (Q9UBN7 whole entry): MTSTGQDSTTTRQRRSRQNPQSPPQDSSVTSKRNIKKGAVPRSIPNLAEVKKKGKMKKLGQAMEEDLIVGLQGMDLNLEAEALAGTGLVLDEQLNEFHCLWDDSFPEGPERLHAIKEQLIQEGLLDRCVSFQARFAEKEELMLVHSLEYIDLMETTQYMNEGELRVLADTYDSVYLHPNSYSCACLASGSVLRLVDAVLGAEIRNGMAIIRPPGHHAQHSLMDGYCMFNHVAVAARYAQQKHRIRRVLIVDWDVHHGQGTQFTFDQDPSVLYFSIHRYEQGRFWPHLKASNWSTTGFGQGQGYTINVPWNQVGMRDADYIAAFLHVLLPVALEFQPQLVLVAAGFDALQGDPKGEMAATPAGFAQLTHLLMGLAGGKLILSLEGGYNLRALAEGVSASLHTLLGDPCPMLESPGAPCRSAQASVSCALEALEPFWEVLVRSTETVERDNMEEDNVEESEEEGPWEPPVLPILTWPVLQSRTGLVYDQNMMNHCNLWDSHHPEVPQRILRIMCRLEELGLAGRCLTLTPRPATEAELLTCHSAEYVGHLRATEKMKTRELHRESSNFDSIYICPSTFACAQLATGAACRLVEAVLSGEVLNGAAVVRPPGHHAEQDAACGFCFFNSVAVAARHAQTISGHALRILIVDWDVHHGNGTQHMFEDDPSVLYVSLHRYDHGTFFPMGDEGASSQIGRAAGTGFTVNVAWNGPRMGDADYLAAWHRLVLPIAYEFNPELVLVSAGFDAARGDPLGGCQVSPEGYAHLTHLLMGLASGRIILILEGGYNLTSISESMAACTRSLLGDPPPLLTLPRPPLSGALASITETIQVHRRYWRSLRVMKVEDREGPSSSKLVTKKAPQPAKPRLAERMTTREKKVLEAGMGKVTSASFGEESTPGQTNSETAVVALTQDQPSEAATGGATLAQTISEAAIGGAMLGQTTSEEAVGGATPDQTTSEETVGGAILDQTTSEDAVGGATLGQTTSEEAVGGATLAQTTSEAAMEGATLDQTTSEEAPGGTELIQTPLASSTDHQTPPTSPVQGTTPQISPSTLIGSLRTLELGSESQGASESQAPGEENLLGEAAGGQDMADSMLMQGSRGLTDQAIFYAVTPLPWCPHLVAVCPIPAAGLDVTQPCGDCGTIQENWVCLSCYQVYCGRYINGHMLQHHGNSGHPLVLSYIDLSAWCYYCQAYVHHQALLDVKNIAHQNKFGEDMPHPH

[3] = tested on: MC-38; assay: Antitumor activity against mouse MC38 cells xenografted in C57BL/6 mouse assessed as necrosis in tumor at 50 to 100 mg/kg, ip administered every 2 days for 16 consecutive days measured by H and E staining method; type: functional, organism-based; details: dose 50-100 mg/kg, time 16.0 day
[4] = tested on: HeLa; assay: Antiproliferative activity against human HeLa cells after 48 hrs by CCK-8 assay; type: functional, cell-based
[5] = tested on: HCT-116; assay: Induction of apoptosis in human HCT-116 cells assessed as early apoptotic cells at 1.5 uM incubated for 48 hrs by PI and annexin V-FITC staining based flow cytometry (reference value: 3.4%); type: functional
[6] = tested on: HCT-116; assay: Downregulation of SSRP-1 expression in human HCT-116 cells at 0.17 to 1.5 uM measured after 24 hrs by Western blot analysis; type: functional, cell-based; details: dose 0.17-1.5 µM
[7] = tested on: MC-38; assay: Antitumor activity against mouse MC38 cells xenografted in C57BL/6 mouse assessed as decrease in tumor volume at 50 to 100 mg/kg, ip administered every 2 days for 16 consecutive days; type: functional, organism-based; details: dose 50-100 mg/kg, time 16.0 day
[8] = tested on: MC-38; assay: Antitumor activity against mouse MC38 cells xenografted in C57BL/6 mouse assessed as decrease in Ac-HH3 expression in tumor at 50 to 100 mg/kg, ip administered every 2 days for 16 consecutive days measured by immunohistochemistry analysis; type: functional, organism-based; details: dose 50-100 mg/kg, time 16.0 day
[9] = tested on: MC38; assay: Inhibition of HDAC in mouse MC-38 cells assessed as increase in acetylated HH3 expression expression at 0.17 to 1.5 uM incubated for 48 hrs by Western blot analysis; type: cell-based; details: dose 0.17-1.5 µM
[10] = tested on: MC-38; assay: Antitumor activity against mouse MC38 cells xenografted in C57BL/6 mouse assessed as decrease in tumor weight at 50 to 100 mg/kg, ip administered every 2 days for 16 consecutive days; type: functional, organism-based; details: dose 50-100 mg/kg, time 16.0 day
[11] = tested on: MOLT-4; assay: Antiproliferative activity against human MOLT-4 cells after 48 hrs by CCK-8 assay; type: functional, cell-based; details: MOLT-4, 48 h

IC50 [2]: 20 nM
IC50 [4]: 780 nM
IC50 [11]: 150 nM
Structure (SMILES): O=C(CCCCCOc1cccc(-c2nnc(-c3ccccc3)s2)c1)NO
IC50 [1]: 430 nM
Activity [3]: Active
Activity [5]: 38.5%
Activity [6]: Active
Activity [7]: Active
Activity [8]: Active
inhibition [9]: Active
Activity [10]: Active
